Measurements published in ChEMBL document CHEMBL4739711, “Method of inhibiting DYRK1B” (2020).
Calls of active or inactive are those of the source. No cut-off for these calls is given here.

Experiments:
[1] = molecular target: Dual specificity tyrosine-phosphorylation-regulated kinase 1B (Homo sapiens) (UniProt Q9Y463); assay: Inhibition of DYRK1B in SAG stimulated human Daoy cells assessed as prevention of Hedgehog signaling by measuring reduction of GLI expression at 1 to 5 uM by Western blot analysis; type: tissue-based; settings: dose 1-5 µM
[2] = test system: PANC-1; assay: Inhibition of colony formation in human PANC-1 cells at 0.5 uM; type: functional, cell-based
[3] = test system: PANC-1; assay: Toxicity in human PANC-1 cells assessed as effect on cell viability at 0.5 uM; type: cell-based; settings: panc-1, 0.5 µM
[4] = molecular target: T1, Zinc finger protein GLI1 (Homo sapiens) (UniProt P08151); assay: Inhibition of GLI in SAG stimulated human Daoy cells assessed as prevention of Hedgehog signaling by measuring reduction of GLI expression at 20 uM in presence of siRNA for SUFU by Western blot analysis; type: tissue-based
T1 sequence (whole entry): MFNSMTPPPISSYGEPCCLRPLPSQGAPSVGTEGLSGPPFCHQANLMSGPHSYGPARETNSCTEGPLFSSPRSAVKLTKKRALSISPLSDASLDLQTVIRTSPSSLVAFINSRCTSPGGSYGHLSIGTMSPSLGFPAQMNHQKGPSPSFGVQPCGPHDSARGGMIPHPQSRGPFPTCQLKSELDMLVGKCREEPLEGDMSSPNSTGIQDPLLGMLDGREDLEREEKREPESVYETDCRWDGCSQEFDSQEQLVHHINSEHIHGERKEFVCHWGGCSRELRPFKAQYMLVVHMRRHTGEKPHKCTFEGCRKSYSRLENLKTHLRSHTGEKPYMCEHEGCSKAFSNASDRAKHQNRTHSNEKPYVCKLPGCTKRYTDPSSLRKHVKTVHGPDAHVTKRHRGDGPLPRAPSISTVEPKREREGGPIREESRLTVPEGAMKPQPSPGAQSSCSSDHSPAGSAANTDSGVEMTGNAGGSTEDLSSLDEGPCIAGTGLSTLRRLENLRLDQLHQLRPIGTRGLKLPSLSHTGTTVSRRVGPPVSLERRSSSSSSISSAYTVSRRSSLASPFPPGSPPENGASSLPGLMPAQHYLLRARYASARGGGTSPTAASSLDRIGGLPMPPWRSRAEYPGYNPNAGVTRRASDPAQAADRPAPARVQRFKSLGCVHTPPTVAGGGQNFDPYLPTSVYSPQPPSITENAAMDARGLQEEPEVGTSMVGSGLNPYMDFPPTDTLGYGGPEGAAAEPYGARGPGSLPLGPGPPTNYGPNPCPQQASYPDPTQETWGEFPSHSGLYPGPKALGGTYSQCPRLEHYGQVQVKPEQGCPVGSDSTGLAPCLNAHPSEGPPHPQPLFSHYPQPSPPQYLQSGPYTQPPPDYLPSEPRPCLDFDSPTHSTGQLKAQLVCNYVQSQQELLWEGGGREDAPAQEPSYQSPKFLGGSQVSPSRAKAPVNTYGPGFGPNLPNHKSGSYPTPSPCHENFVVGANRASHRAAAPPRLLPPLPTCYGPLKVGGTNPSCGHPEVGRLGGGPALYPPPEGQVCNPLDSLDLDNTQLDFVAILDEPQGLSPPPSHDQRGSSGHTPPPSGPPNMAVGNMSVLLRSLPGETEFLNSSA

[5] = molecular target: T1, Zinc finger protein GLI1 (Homo sapiens); assay: Inhibition of GLI in SAG stimulated human Daoy cells assessed as prevention of Hedgehog signaling by measuring reduction of PTCH1 expression at 20 uM in presence of siRNA for SUFU by Western blot analysis; type: tissue-based
[6] = molecular target: Dual specificity tyrosine-phosphorylation-regulated kinase 1B (Homo sapiens) (UniProt Q9Y463); assay: Inhibition of DYRK1B in SAG stimulated human Daoy cells assessed as prevention of Hedgehog signaling by measuring reduction of GLI expression at 10 to 25 uM by Western blot analysis; type: tissue-based; settings: dose 10-25 µM
[7] = molecular target: Dual specificity tyrosine-phosphorylation-regulated kinase 1B (Homo sapiens) (UniProt Q9Y463); assay: Inhibition of DYRK1B in SAG stimulated human Daoy cells assessed as prevention of Hedgehog signaling by measuring reduction of PTCH1 expression at 10 to 25 uM by Western blot analysis; type: tissue-based; settings: dose 10-25 µM
[8] = molecular target: Protein smoothened (Mus musculus) (UniProt P56726); assay: Inhibition of SMO in SAG stimulated mouse BCC cells assessed as prevention of Hedgehog signaling by measuring reduction of GLI expression at 10 to 25 uM by Western blot analysis; type: cell-based; settings: dose 10-25 µM
[9] = molecular target: Dual specificity tyrosine-phosphorylation-regulated kinase 1B (Homo sapiens) (UniProt Q9Y463); assay: Inhibition of DYRK1B in human A673 cells assessed as prevention of Hedgehog signaling by measuring reduction of GLI expression at 10 to 25 uM by Western blot analysis; type: cell-based; settings: dose 10-25 µM
[10] = molecular target: Dual specificity tyrosine-phosphorylation-regulated kinase 1B (Homo sapiens) (UniProt Q9Y463); assay: Inhibition of DYRK1B in human PANC-1 cell assessed as prevention of Hedgehog signaling by measuring reduction of GLI expression at 10 to 25 uM by Western blot analysis; type: tissue-based; settings: dose 10-25 µM
[11] = test system: PANC-1; assay: Inhibition of colony formation in human PANC-1 cells at 10 to 25 uM; type: functional, cell-based; settings: dose 10-25 µM
[12] = test system: PANC-1; assay: Toxicity in human PANC-1 cells assessed as effect on cell viability at 10 to 25 uM; type: cell-based; settings: panc-1, 25 µM, dose 10-25 µM

Dual specificity tyrosine-phosphorylation-regulated kinase 1B (Homo sapiens), sequence (Q9Y463 whole entry, looked up): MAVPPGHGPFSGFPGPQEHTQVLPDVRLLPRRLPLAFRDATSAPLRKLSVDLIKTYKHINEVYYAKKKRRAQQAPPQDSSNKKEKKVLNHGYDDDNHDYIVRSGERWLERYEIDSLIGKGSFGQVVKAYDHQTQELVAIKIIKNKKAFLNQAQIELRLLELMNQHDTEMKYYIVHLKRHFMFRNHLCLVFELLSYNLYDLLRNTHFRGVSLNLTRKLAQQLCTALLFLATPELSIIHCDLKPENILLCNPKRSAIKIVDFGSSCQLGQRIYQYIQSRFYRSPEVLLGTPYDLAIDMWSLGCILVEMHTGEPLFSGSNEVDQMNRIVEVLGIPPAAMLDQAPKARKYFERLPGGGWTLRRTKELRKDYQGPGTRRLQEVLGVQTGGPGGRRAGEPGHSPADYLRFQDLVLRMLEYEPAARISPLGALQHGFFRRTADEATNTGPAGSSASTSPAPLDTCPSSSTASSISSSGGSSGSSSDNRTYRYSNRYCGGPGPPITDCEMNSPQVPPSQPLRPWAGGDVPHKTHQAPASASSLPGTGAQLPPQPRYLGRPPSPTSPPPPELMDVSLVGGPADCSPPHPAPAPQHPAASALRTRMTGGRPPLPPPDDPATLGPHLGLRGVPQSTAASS
Protein smoothened (Mus musculus), sequence (P56726 whole entry): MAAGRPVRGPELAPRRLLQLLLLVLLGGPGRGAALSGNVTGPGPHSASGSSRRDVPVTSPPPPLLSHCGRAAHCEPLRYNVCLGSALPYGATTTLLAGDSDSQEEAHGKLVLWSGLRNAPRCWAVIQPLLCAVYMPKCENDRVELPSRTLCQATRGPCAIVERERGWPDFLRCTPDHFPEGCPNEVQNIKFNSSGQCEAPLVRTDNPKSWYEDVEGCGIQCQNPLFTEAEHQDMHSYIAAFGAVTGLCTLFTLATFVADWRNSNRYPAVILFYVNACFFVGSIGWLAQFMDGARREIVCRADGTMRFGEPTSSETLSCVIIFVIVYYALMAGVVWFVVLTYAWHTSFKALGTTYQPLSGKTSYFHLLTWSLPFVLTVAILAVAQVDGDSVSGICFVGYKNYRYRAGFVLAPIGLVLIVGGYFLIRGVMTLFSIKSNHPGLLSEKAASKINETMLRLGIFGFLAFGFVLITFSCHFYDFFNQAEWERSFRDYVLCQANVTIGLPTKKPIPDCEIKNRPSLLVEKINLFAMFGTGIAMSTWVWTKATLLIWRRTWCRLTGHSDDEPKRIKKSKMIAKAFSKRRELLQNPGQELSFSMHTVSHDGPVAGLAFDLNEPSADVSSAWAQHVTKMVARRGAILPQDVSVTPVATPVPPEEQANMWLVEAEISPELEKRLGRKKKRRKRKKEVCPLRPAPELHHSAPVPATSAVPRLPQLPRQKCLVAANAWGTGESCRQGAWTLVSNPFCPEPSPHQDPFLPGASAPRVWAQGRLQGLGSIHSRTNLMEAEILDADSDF

SMILES: FC(F)(F)c1ccc2[nH]c(Nc3ncccn3)nc2c1
- inhibition [1]: Active

SMILES: CS(=O)(=O)c1ccc(C(=O)Nc2ccc(Cl)c(-c3ccccn3)c2)c(Cl)c1 [VISMODEGIB]
- inhibition [2]: inactive
- Activity [3]: Non-Toxic

SMILES: CN(C)c1ccccc1CN1CCCN(Cc2ccccc2N(C)C)C1c1ccncc1
- inhibition [4]: Active
- inhibition [5]: Active

SMILES: COc1ccc2c(c1)[nH]c1c(C)nccc12 [HARMINE]
- inhibition [6]: Active
- inhibition [7]: Active
- inhibition [8]: Active
- inhibition [9]: Active
- inhibition [10]: Active
- inhibition [11]: Active
- Activity [12]: Non-Toxic
